# How the values were obtained:
# MOLT-4 cells [1] = experiment: Effects of Gal-9 on DEX-, anti-Fas Ab- or etoposide-induced apoptosis; type: cell-based, human; conditions: FIG. 9
# Text: The following agents were purchased from suppliers below: DEX (BioVision, CA, US), anti-Fas Ab (clone CH-11, MBL), TNFα (Genzyme, Cambridge, Mass., US), C2 ceramide (SIGMA), and etoposide (Biovision).
# Effects of Gal-9 on the apoptosis induced by other stimuli (e.g. DEX, anti-Fas Ab, and etoposide) were examined.
# HL-60 = experiment: Apoptosis analysis by PI method in HL60 cells; type: cell-based
# Protocol: MOLT-4 (T cell), Jurkat (T cell), BALL-1 (B cell), THP-1 (acute monocytic leukemia derived cell), and HL60 (acute promyelotic leukemia derived cell) cells were obtained from American Type Culture Collection (ATCC). All the cell lines were maintained in an RPMI-1640 medium (Sigma, St. Louis, US) supplemented with 10% FCS in 5% Co2 at 37° C. Lactose (30 mM) was added to the culture medium to inhibit Gal-9 activity. The same concentration of sucrose was used as a control.
# Cells that underwent apoptosis induction were centrifuged at 4° C. for 5 min at 1,000 rpm, and the cell pellet was resuspended in PBS (300 μL), and adjusted to a final concentration of 70% by gradually adding 100% cold ethanol (700 μL) to the suspended cells with vortexing. […] Stained cells were analyzed by flow cytometry (Sandstrom, K. et al., J Immunol Methods, 240: 55 (2000) and Zhang L. et al., Cancer Lett, 142: 129 (1999)) after removing aggregated cells through a nylon mesh and increasing the cell volume with PBS. […]
# Apoptotic activity was measured by the PI method. […] Subsequently, incubation with PI leads to a reduction in the fluorescence intensity of apoptotic cells. Apoptosis was examined by the percentage of the cells wherein their fluorescence intensity was reduced. […]
# HMC-1 = experiment: Apoptosis analysis by PI method in HMC-1 cells; type: cell-based; conditions: incubation with galectin-9 at least 48 hr or more
# Protocol: Apoptotic activity was measured by the PI method. When cells are incubated with galectin-9, washed, then subjected to alcohol-fixation, and fragmented DNAs flow out of the cell. Subsequently, incubation with PI leads to a reduction in the fluorescence intensity of apoptotic cells. Apoptosis was examined by the percentage of the cells wherein their fluorescence intensity was reduced. […] This induction was at the same level as H2O2 (hydrogen peroxide solution) that was used as a positive control. In addition, the same results were obtained by another method for examining apoptosis, TUNEL assay.
# MOLT-4 cells [2] = experiment: Apoptosis analysis with Annexin V-PI in MOLT-4 cells; type: cell-based, human; conditions: 1 μM Gal-9; FIG. 1B; control 13.2%
# Protocol: MEBCYTO (registered trademark) Apoptosis kit (MBL, Nagoya, Japan) was used for apoptosis analysis with Annexin V-PI. Experiments were carried out according to the manufacturer's instruction as follows. Briefly, cells that underwent apoptosis induction (2×10^5 cells/sample) were washed with PBS, and resuspended in the binding buffer. After adding Annexin V-FITC and 5 μL of PI (final concentration 5 μg/mL) in the kit to the cell suspension, cells were incubated for 15 min at room temperature in the dark. Analysis was conducted using flow cytometry (EPICS XL-MCL, CouHer, Miami, Fla., US).
# MM-RU = experiment: Induction of cell aggregation in MM-RU; type: cell-based, human; conditions: for aggregation: FIG. 14
# Protocol: Recombinant galectin-9 prepared via gene transfer into E. coli was added to MM-RU exogenously, and the efficacy of galectin-9 was then examined. As a result, galectin-9 induced aggregation of MM-RU at the concentration of 0.1 μM or higher. In addition, the galectin-9 efficacy was concentration-dependent, and significant between 0.3-1.0 μM.
# CD4+ T cells = experiment: Apoptosis induction in peripheral blood CD4+ T cells, resting or anti-CD3 Ab-activated; type: cell-based, human; conditions: galectin (+), 1 μM rGal-9
# Protocol: To prepare a well plate coated with anti-CD3 Ab, 24 well palates were incubated with TBS solution (pH 8.0) containing 3 μg/mL anti-CD3 Ab (Inmunotech, Marseille, France) per well at 4° C. overnight, and each well was washed with PBS after removing anti-CD3 Ab solution.
# Mononuclear leukocyte fractions were isolated from heparinized blood using HISTOPAQUE (Registered trademark, SIGMA). CD4-Positive Isolation Kit (DYNAL, Oslo, Norway) was used for isolation of CD4+ T cells and Dynabeads M-450 CD8 (Registered trademark, DYNAL, Oslo, Norway) for isolation of CD8+ T cells, respectively, according to the manufacturer's instructions.
# To activate T cells, CD4+ or CD8+ cells at 1×10^6 cells/mL in an RPMI-1640 medium containing 10% FCS were incubated on the plate coated with anti-CD3 Ab for 20 to 24 hr at 37° C. in a 5% CO2 incubator, and incubated with rGal-9 [(His)6-Gal-9(S)] at 37° C. in a 5% CO2 incubator. Then apoptosis assay was conducted as described in (c). That is, cells were incubated with 50 μg/mL PI (SIGMA) at 37° C. for 10 min in the dark. Stained cells were analyzed by flow cytometry (Sandstrom, K. et al., J Immunol Methods, 240: 55 (2000) and Zhang L. et al., Cancer Lett, 142: 129 (1999)).
# Apoptosis assay was also conducted for non-activated (resting) T cells as described above after incubating them with rGal-9 [(His)6-Gal-9(S)] at 37° C. in a 5% Co2 incubator.
# For comparison, galectin-1 and -3 treated cells were analyzed.
# Next, apoptosis induction by Gal-9 in human peripheral blood T cells was examined. T cells were separated into CD4+ and CD8+ T cells followed by incubation in the presence or absence of anti-CD3 Ab. Resting T cells and anti-CD3 Ab-activated T cells were incubated with 1 μM rGal-9.
# [3] = recombinant galectin-9 added exogenously
substance,measurement,setting,value
Galectin-9: Recombinant human galectin-9 expressed in E. coli and purified on lactose-agarose,effect of rGal-9 on anti-Fas Ab-induced apoptosis,MOLT-4 cells [1],additional effects
same,effect of rGal-9 on etoposide-induced apoptosis,MOLT-4 cells [1],additional effects
same,"percentage (%) of apoptotic cells, rGal-9 with DEX",MOLT-4 cells [1],scarcely little or no difference
same,"apoptosis induction, Gal9 (+)","HL-60; HL-60, incubation with galectin-9 at least 48 hr or more",64.6
same,apoptosis induction,"HL-60; rGal-9 1 μM, 24 hr, FIG. 3",induced
same,"apoptosis induction, Gal9 (+)",HMC-1,26.2
same,"cells that underwent apoptosis, detectable by Annexin V staining",MOLT-4 cells [2],69.1%
same,aggregation,MM-RU; 2 hr after addition,aggregation was observed
same,aggregation,MM-RU; 12 hr after addition,more intensive aggregation
same,concentration at which aggregation of MM-RU was induced,MM-RU; [3],≥ 0.1 µM
same,concentration at which the efficacy was significant,MM-RU; [3],0.3 to 1.0 µM
same,"apoptosis induction, CD4",CD4+ T cells; CD3 (+) cells activated on anti-CD3 Ab-coated plates,41.7
same,"apoptosis induction, CD4",CD4+ T cells; CD3 (−) untreated resting cells,10.8

# From patent US20060134119A1, “Drugs containing galectin 9” (priority 2003, published 2006)
